Laboratory results reported in the NIST ThermoML archive (doi:10.1021/acs.jced.6b00455).

Assay: mn = molality of the nth substance listed, in mol/kg
Conditions: 101 kPa, Liquid, Alternating current cell with electrodes

C[N+](C)(C)CCO.O=C([O-])C(F)(F)C(F)(F)C(F)(F)C(F)(F)C(F)(F)F [(2-hydroxyethyl)trimethylammonium perfluorohexanoate] + O
Conditions	electrical conductivity [S/m]
303.15 K, m1 = 0.008511	0.0638
303.15 K, m1 = 0.008888	0.0663
303.15 K, m1 = 0.009262	0.0691
303.15 K, m1 = 0.009766	0.0727
303.15 K, m1 = 0.01022	0.0763
308.15 K, m1 = 0.00032	0.0028
308.15 K, m1 = 0.000664	0.006
308.15 K, m1 = 0.000979	0.0086
308.15 K, m1 = 0.001217	0.0105
308.15 K, m1 = 0.001449	0.0125
308.15 K, m1 = 0.001666	0.0142
308.15 K, m1 = 0.002016	0.017
308.15 K, m1 = 0.00224	0.0188
308.15 K, m1 = 0.002547	0.0213
308.15 K, m1 = 0.002821	0.0235
308.15 K, m1 = 0.003227	0.0266
308.15 K, m1 = 0.003473	0.0285
308.15 K, m1 = 0.003909	0.0318
308.15 K, m1 = 0.004306	0.0348
308.15 K, m1 = 0.004503	0.0365
308.15 K, m1 = 0.004751	0.0383
308.15 K, m1 = 0.005079	0.0408
308.15 K, m1 = 0.005473	0.0437
308.15 K, m1 = 0.005677	0.0452
308.15 K, m1 = 0.005898	0.0468
308.15 K, m1 = 0.006135	0.0484
308.15 K, m1 = 0.006462	0.0505
308.15 K, m1 = 0.006775	0.0522
308.15 K, m1 = 0.006992	0.0537
308.15 K, m1 = 0.007243	0.0556
308.15 K, m1 = 0.00746	0.0572
308.15 K, m1 = 0.007893	0.0603
308.15 K, m1 = 0.008273	0.063
308.15 K, m1 = 0.008535	0.0647
308.15 K, m1 = 0.008941	0.0676
308.15 K, m1 = 0.009261	0.0697
308.15 K, m1 = 0.009516	0.0711
308.15 K, m1 = 0.009886	0.0734
308.15 K, m1 = 0.01025	0.076
313.15 K, m1 = 0.00043	0.0042
313.15 K, m1 = 0.000832	0.008
313.15 K, m1 = 0.001262	0.012
313.15 K, m1 = 0.001627	0.0157
313.15 K, m1 = 0.002033	0.0192
313.15 K, m1 = 0.00239	0.0224
313.15 K, m1 = 0.002657	0.0247
313.15 K, m1 = 0.002904	0.0268
313.15 K, m1 = 0.003178	0.0292
313.15 K, m1 = 0.003443	0.0314
313.15 K, m1 = 0.003771	0.0349
313.15 K, m1 = 0.004146	0.038
313.15 K, m1 = 0.004519	0.0412
313.15 K, m1 = 0.004784	0.0433
313.15 K, m1 = 0.005179	0.0467
313.15 K, m1 = 0.005436	0.0487
313.15 K, m1 = 0.005698	0.051
313.15 K, m1 = 0.006109	0.0544
313.15 K, m1 = 0.006403	0.0567
313.15 K, m1 = 0.006614	0.0584
313.15 K, m1 = 0.006889	0.0606
313.15 K, m1 = 0.007247	0.0637
313.15 K, m1 = 0.007657	0.0669
313.15 K, m1 = 0.008021	0.0699
313.15 K, m1 = 0.008353	0.0725
313.15 K, m1 = 0.0086	0.0744
313.15 K, m1 = 0.008852	0.0763
313.15 K, m1 = 0.009114	0.0783
313.15 K, m1 = 0.009356	0.0803
313.15 K, m1 = 0.009621	0.0823
313.15 K, m1 = 0.009883	0.0842
313.15 K, m1 = 0.01024	0.0869
313.15 K, m1 = 0.01049	0.0888
